Measured values published in patent US20220344599A1, “METAL COMPLEX AND ELECTRON TRANSPORTING MATERIAL COMPRISING SAME” (DYDEN CORPORATION, priority 2019, published 2022).

Assay: dissolution test of metal complexes in protic polar solvents
Assay type: physicochemical
Parameters: key to dissolution test, 7.5 g/L: a case where an undissolved remnant was present was evaluated as “X”; a case where a slight undissolved remnant was present was evaluated as “Δ”; a case of complete dissolution was evaluated as “ο”
Method: The metal complexes obtained in [1] were each dissolved in a protic polar solvent shown in Table 1 to produce a liquid material for constructing the electron transport layer of an organic electroluminescent element.
For example, Metal complex L101-Cs was dissolved in 1-heptanol to prepare alcohol solutions of 7.5 g/L to 15 g/L.
In Table 1, a case where an undissolved remnant was present was evaluated as “X”, a case where a slight undissolved remnant was present was evaluated as “Δ”, and a case of complete dissolution was evaluated as “ο”.

Structure (SMILES) | dissolution test, 7.5 g/L (1-Heptanol) | dissolution test, 15 g/L (1-Heptanol) | also measured
Oc1cccc2c1nc(-c1ccccc1)n2-c1cccc(-c2ccc3ccc4cccnc4c3n2)c1 [L101-Cs] | ○ | – | –
Oc1cccc2c1nc(-c1ccccc1)n2-c1cccc(-c2ccc3ccc4cccnc4c3n2)c1 [L101-Rb] | ○ | – | –
Oc1cccc2c1nc(-c1ccccc1)n2-c1ccc2ccc3cccnc3c2n1 [L102-Cs] | ○ | – | –
Oc1ccc(-c2ccc3ccc4cccnc4c3n2)c2c1nc(-c1ccccc1)n2-c1ccccc1 [L103-Cs] | ○ | – | –
Oc1cccc2oc3cc(-c4ccc5ccc6cccnc6c5n4)cnc3c12 [L301-Cs] | Δ | – | dissolution test, 5 g/L (1-Heptanol, 5 g/L): ○; dissolution test, 7.5 g/L (2-Methoxyethanol): ○; dissolution test, 15 g/L (2-Methoxyethanol): ○
O=P(c1ccccc1)(c1ccc2ccc3cccnc3c2n1)c1ccc(O)c2c1oc1cccnc12 (stereo not drawn) [L302-Cs] | ○ | ○ | –
O=P(c1ccccc1)(c1ccc2ccc3cccnc3c2n1)c1ccc(O)c2c1oc1cccnc12 (stereo not drawn) [L302-Li] | ○ | ○ | –
O=P(c1ccccc1)(c1ccc2ccc3cccnc3c2n1)c1ccc(O)c2c1oc1cccnc12 (stereo not drawn) [L302-Rb] | ○ | ○ | –
O=P(c1ccccc1)(c1ccccc1)c1ccc2ccc3ccc(-c4ccc(O)c5c4oc4cccnc45)nc3c2n1 [L303-Cs] | ○ | – | –
